Values belong to the compound of their own block, whether it stands above or below them. The source made the active and inactive calls. No cut-off for these calls is given here.
Key:
P2X purinoceptor 7 [1] = target: T1, P2X purinoceptor 7 (Homo sapiens, UniProt Q99572); experiment: Antagonist activity at human P2X7 receptor assessed as reduction in calcium flux by FLIPR assay
T1 sequence (Q99572 whole entry): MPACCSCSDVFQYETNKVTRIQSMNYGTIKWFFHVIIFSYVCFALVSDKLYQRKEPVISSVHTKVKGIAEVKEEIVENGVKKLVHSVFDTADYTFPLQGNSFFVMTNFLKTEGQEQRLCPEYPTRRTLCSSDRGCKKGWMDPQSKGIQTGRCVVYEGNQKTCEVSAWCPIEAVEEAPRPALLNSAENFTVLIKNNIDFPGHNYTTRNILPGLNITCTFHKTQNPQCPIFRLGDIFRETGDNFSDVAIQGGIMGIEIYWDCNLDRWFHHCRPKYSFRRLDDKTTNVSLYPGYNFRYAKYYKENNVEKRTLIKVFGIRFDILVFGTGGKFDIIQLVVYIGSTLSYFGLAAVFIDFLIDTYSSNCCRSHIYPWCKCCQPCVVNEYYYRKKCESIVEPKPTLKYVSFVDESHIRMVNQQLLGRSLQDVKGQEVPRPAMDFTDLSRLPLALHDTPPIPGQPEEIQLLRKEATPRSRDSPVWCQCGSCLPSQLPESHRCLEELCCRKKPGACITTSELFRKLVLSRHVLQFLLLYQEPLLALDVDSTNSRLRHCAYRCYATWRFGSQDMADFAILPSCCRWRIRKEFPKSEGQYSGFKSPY

P2X purinoceptor 7 [2] = target: T2, P2X purinoceptor 7 (Mus musculus, UniProt Q9Z1M0); experiment: Antagonist activity at mouse P2X7 receptor assessed as reduction in calcium flux by FLIPR calcium flux assay
T2 sequence (Q9Z1M0 whole entry): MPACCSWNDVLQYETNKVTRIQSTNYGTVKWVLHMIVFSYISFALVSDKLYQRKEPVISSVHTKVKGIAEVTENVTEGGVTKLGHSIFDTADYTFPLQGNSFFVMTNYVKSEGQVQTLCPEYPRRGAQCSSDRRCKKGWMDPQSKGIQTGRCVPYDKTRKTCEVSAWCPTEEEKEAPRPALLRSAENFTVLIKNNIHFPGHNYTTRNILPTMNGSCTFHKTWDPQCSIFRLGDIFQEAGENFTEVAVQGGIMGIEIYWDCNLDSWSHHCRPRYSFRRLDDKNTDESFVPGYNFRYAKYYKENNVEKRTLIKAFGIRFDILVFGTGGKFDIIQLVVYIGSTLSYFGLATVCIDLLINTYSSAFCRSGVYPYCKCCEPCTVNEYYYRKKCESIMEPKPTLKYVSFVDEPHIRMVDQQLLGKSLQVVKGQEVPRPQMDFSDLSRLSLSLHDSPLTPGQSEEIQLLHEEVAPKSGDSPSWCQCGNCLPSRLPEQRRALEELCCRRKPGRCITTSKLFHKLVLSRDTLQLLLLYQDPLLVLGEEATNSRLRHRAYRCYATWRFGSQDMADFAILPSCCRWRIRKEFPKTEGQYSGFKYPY

P2X purinoceptor 7 [3] = target: T1, P2X purinoceptor 7; experiment: Antagonist activity at P2X7 receptor in human whole blood assessed as reduction in LPS/BzATP-induced IL-1beta release preincubated with LPS-stimulated cells for 30 mins followed by BzATP addition measured after 1.5 hrs by ELISA; format: tissue-based
P2X purinoceptor 7 [4] = target: T2, P2X purinoceptor 7; experiment: Antagonist activity at P2X7 receptor in C57/bl6 mouse whole blood assessed as reduction in LPS/BzATP-induced IL-1beta release preincubated with LPS-stimulated cells for 30 mins followed by BzATP addition measured after 1.5 hrs by ELISA; format: tissue-based
[5] = Plasma concentration in mouse at 50 mg/kg, po measured at 4 hrs; format: ADME, organism-based
[6] = Drug uptake in mouse brain at 50 mg/kg, po measured at 4 hrs; format: ADME, organism-based; conditions: read-out: Drug uptake
Mus musculus [7] = experiment: Ex vivo inhibition of P2X7 receptor in po dosed C57/bl6 mouse assessed as reduction in LPS/BzATP-induced IL-1beta release in blood measured 2 hrs post dose; format: functional, organism-based
Mus musculus [8] = experiment: Ex vivo inhibition of P2X7 receptor in C57/bl6 mouse assessed as plasma concentration required to reduce LPS/BzATP-induced IL-1beta release at 50 mg/kg, po measured 2 hrs post dose; format: functional, organism-based
Mus musculus [9] = experiment: Ex vivo inhibition of P2X7 receptor in C57/bl6 mouse assessed as plasma concentration required to reduce LPS/BzATP-induced IL-1beta release at 15 mg/kg, po measured 2 hrs post dose; format: functional, organism-based
Mus musculus [10] = experiment: Ex vivo inhibition of P2X7 receptor in C57/bl6 mouse assessed as plasma concentration required to reduce LPS/BzATP-induced IL-1beta release at 5 mg/kg, po measured 2 hrs post dose; format: functional, organism-based
Mus musculus [11] = experiment: Ex vivo inhibition of P2X7 receptor in C57/bl6 mouse assessed as plasma concentration required to reduce LPS/BzATP-induced IL-1beta release at 50 mg/kg, po measured 4 hrs post dose; format: functional, organism-based
Mus musculus [12] = experiment: Ex vivo inhibition of P2X7 receptor in C57/bl6 mouse assessed as plasma concentration required to reduce LPS/BzATP-induced IL-1beta release at 50 mg/kg, po measured 8 hrs post dose; format: functional, organism-based
[13] = Drug uptake in C57/bl6 mouse plasma at 50 mg/kg, po after 24 hrs; format: ADME, organism-based; conditions: in vivo, BLD = below limit of detection
Mus musculus [14] = experiment: Antiarthritic activity in DBA mouse assessed as decrease in collagen/CFA-induced arthritic score at 0.3 mg/kg, po qd administered on day 21 to 34 post collagen/CFA challenge measured on day 35; format: functional, organism-based
Mus musculus [15] = experiment: Antiarthritic activity in DBA mouse assessed as decrease in collagen/CFA-induced arthritic score at 30 mg/kg, ip twice per week administered on day 21 post collagen/CFA challenge; format: functional, organism-based

Structure (SMILES): CNc1ccc2c(C(=O)NCC(c3cnc(C(F)(F)F)nc3)N3CCC(F)(F)CC3)c(Cl)ccc2n1 (configuration not stated)
IC50 (P2X purinoceptor 7 [1]): 82 nM | IC50 (P2X purinoceptor 7 [2]): 305 nM

Structure (SMILES): O=C(NCC(c1cnc(C(F)(F)F)nc1)N1CCC(F)(F)CC1)c1c(Cl)ccc2nc(N3CCOCC3)ccc12 (configuration not stated)
IC50 (P2X purinoceptor 7 [1]): 25 nM | IC50 (P2X purinoceptor 7 [2]): 103 nM | IC50 (P2X purinoceptor 7 [3]): 376 nM | IC50 (P2X purinoceptor 7 [4]): 631 nM

Structure (SMILES): O=C(NCC(c1cnc(C(F)(F)F)nc1)N1CCC(F)(F)CC1)c1c(Cl)ccc2nc(NCCO)ccc12 (configuration not stated)
IC50 (P2X purinoceptor 7 [1]): 78 nM

Structure (SMILES): C[C@@H]1C[C@H]2[C@@H]3CCC4=CC(=O)C=C[C@]4(C)[C@@]3(F)[C@@H](O)C[C@]2(C)[C@@]1(O)C(=O)CO
Activity (Mus musculus [14]): Active

Structure (SMILES): CN(Cc1cnc2nc(N)nc(N)c2n1)c1ccc(C(=O)N[C@@H](CCC(=O)O)C(=O)O)cc1
Activity (Mus musculus [15]): Active

Further compounds by falling IC50 (P2X purinoceptor 7 [1]), results first:

IC50 (P2X purinoceptor 7 [1]): 151 nM
Structure (SMILES): O=C(NCC(c1cnc(C(F)(F)F)nc1)N1CCC(F)(F)CC1)c1c(Cl)ccc2nc(N3CC[C@H](O)C3)ccc12 (some centres not stated)

IC50 (P2X purinoceptor 7 [1]): 120 nM
Structure (SMILES): O=C(NCC(c1cnc(C(F)(F)F)nc1)N1CCC(F)(F)CC1)c1c(Cl)ccc2nc(N3CCC(O)CC3)ccc12 (configuration not stated)

IC50 (P2X purinoceptor 7 [1]): 85 nM | IC50 (P2X purinoceptor 7 [2]): 486 nM
Structure (SMILES): CN1CCN(c2ccc3c(C(=O)NCC(c4cnc(C(F)(F)F)nc4)N4CCC(F)(F)CC4)c(Cl)ccc3n2)CC1 (configuration not stated)

IC50 (P2X purinoceptor 7 [1]): 64 nM | IC50 (P2X purinoceptor 7 [2]): 123 nM | IC50 (P2X purinoceptor 7 [3]): 141 nM | IC50 (P2X purinoceptor 7 [4]): 631 nM
Structure (SMILES): O=C(NCC(c1cnc(C(F)(F)F)nc1)N1CCC(F)(F)CC1)c1c(Cl)ccc2nc(NC3CC3)ccc12 (configuration not stated)

IC50 (P2X purinoceptor 7 [1]): 35 nM | IC50 (P2X purinoceptor 7 [2]): 80 nM | IC50 (P2X purinoceptor 7 [3]): 87 nM | IC50 (P2X purinoceptor 7 [4]): 316 nM | concentration at 4 h [5]: 6420 ng/mL | concentration at 4 h [6]: 21 ng/mL | inhibition (Mus musculus [7]): Dose-dependent effect | Cp [13]: Bld
Structure (SMILES): O=C(NCC(c1cnc(C(F)(F)F)nc1)N1CCC(F)(F)CC1)c1c(Cl)ccc2nc(N3CC[C@@H](O)C3)ccc12 (some centres not stated)
Cp (Mus musculus [8]): 23.4 µM | Cp (Mus musculus [9]): 8.9 µM | Cp (Mus musculus [10]): 1.6 µM | Cp (Mus musculus [11]): 11.7 µM | Cp (Mus musculus [12]): 4 µM

IC50 (P2X purinoceptor 7 [1]): 9 nM | IC50 (P2X purinoceptor 7 [2]): 1090 nM
Structure (SMILES): Nc1ccc2c(C(=O)NCC(c3cnc(C(F)(F)F)nc3)N3CCC(F)(F)CC3)c(Cl)ccc2n1 (configuration not stated)

From ChEMBL document CHEMBL3856256, “The discovery and preclinical characterization of 6-chloro-N-(2-(4,4-difluoropiperidin-1-yl)-2-(2-(trifluoromethyl)pyrimidin-5-yl)ethyl)quinoline-5-carboxamide based P2X7 antagonists” (Bioorg Med Chem Lett, 2016)
